The values below come from patent US11111251B2, “Positive allosteric modulators of the muscarinic acetylcholine receptor M1” (Vanderbilt University, priority 2016, dated 2021).

Like-named read-outs stand apart in the source and are kept apart here. Bounds are passed on as bounds.

This assay concerns the target T1, human mAChR M1 (Homo sapiens, UniProt P11229).
T1 sequence (P11229 1-460): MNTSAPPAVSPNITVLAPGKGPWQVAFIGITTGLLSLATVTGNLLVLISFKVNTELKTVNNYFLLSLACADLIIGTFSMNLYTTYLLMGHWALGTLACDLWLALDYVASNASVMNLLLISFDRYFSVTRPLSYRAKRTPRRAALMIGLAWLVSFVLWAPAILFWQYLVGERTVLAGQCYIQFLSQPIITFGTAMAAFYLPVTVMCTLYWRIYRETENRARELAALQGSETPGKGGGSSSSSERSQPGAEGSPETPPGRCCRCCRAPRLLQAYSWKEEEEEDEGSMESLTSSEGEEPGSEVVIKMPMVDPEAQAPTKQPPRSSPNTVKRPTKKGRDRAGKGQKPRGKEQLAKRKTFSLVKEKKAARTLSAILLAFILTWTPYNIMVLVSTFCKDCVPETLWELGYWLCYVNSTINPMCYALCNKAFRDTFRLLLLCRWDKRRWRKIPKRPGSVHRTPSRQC
Put plainly: mAChR M1 cell-based functional assay: calcium mobilization, positive allosteric modulator mode (increase in EC20 acetylcholine response). Conditions: for Emax: read-out: Human M1 Emax (%). Summed up:
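PAM potency reflects the concentration-dependent increase in calcium response to an EC20 acetylcholine challenge, given 144 s into a 300 s read after compound addition at 4 s (EC80 follows at 230 s). Cells were hM1-expressing CHO-K1, loaded 50 min with Fluo-4 AM. Curves used 11 points at 1:3 dilutions and four-parameter logistic fitting.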
A general note: Calcium assays in cells follow changes in intracellular calcium, usually with a dye or a luminescent sensor.

[1] abbreviates: Table 2, human M1, read-out: Human M1 EC50.
[2] abbreviates: Table 1, mAChR M1 cell-based functional assay, PAM mode, species not given, read-out: EC50.

In general, EC50 refers to the midpoint of the concentration-response curve. A word on the Emax: it is the size of the effect at its maximum, as opposed to the concentration needed. Regarding `Cc1csc2c(Cc3ccc(-n4cccn4)cc3)cc(C(=O)NC[C@@H]3CCCO3)nc12` [Compound 323, 3-methyl-7-[(4-pyrazol-1-ylphenyl)methyl]-N-[[(2S)-tetrahydrofuran-2-yl]methyl]thieno[3,2-b]pyridine-5-carboxamide], the EC50 under setting [1] stood at 689 nM. Under “Table 2, human M1”, the Emax was found to be 76.8%.
As for `O=C(NCC1CCOCC1)c1cc(Cc2ccc(-c3nccs3)cc2)c2sccc2n1` [Compound 298, N-(tetrahydropyran-4-ylmethyl)-7-[(4-thiazol-2-ylphenyl)methyl]thieno[3,2-b]pyridine-5-carboxamide], under setting [1], the EC50 was 368 nM. Further, the Emax (Table 2, human M1) worked out at 45.5%.
Consider `Cn1ccc2nc(C(=O)NC3CC4(COC4)C3)cc(Cc3ccc(-c4nccs4)cc3)c21` [Compound 481, 1-methyl-N-(2-oxaspiro[3.3]heptan-6-yl)-7-[(4-thiazol-2-ylphenyl)methyl]pyrrolo[3,2-b]pyridine-5-carboxamide], for which, under setting [1], the EC50 is 386 nM. Further, the maximal effect (Emax) (Table 2, human M1) came to 57%.
With `Cn1ncc2nc(C(=O)N[C@@H]3CC[C@H]3O)cc(Cc3ccc(-n4cccn4)cc3)c21` [Compound 496, N-[(1R,2R)-2-hydroxycyclobutyl]-1-methyl-7-[(4-pyrazol-1-ylphenyl)methyl]pyrazolo-[4,3-b]pyridine-5-carboxamide], the EC50 under setting [1] is above 10000 nM. Moreover, the Emax (Table 2, human M1) was determined as 65.7%.
On the same counts, the results for `Cn1cc(-c2ccc(Cc3cc(C(=O)NCC4CCO4)nc4ccsc34)cn2)cn1` (stereo not shown) [Compound 338, 7-[[6-(1-methylpyrazol-4-yl)-3-pyridyl]methyl]-N-(oxetan-2-ylmethyl)thieno[3,2-b]pyridine-5-carboxamide] are 84.9 nM and 93.3%.
With `Cc1ccc(Cc2cc(C(=O)N[C@H]3COCC[C@@H]3O)nc3ccsc23)cn1` [Compound 46, N-[(3S,4S)-4-hydroxytetrahydropyran-3-yl]-7-[(6-methyl-3-pyridyl)methyl]thieno[3,2-b]pyridine-5-carboxamide], under setting [2], the EC50 stood at 29 nM.
Regarding `Cn1ccc2nc(C(=O)N[C@H]3CC[C@@H]3O)cc(Cc3ccc(-c4nccs4)cc3)c21` [Compound 482, N-[(1S,2S)-2-hydroxycyclobutyl]-1-methyl-7-[(4-thiazol-2-ylphenyl)methyl]pyrrolo[3,2-b]pyridine-5-carboxamide], the EC50 under setting [1] came out at 171 nM. Where the note is “Table 2, human M1”, the Emax is 61.2%.
On the same counts, the results for `Cc1csc2c(Cc3ccc(-n4cccn4)cc3)cc(C(=O)NC3CCCNC3=O)nc12` (stereo not shown) [Compound 122, 3-methyl-N-(2-oxo-3-piperidyl)-7-[(4-pyrazol-1-ylphenyl)methyl]thieno[3,2-b]pyridine-5-carboxamide] are 869 nM and 80.4%.
The like results for `Cc1csc2c(Cc3ccc(-n4cccn4)cc3)cc(C(=O)N[C@H]3CC[C@@H]3O)nc12` [Compound 113, N-[(1S,2S)-2-hydroxycyclobutyl]-3-methyl-7-[(4-pyrazol-1-ylphenyl)methyl]thieno[3,2-b]pyridine-5-carboxamide] were, in that order, 985 nM and 83.8%.
Turning to `Cc1ccc(Cc2cc(C(=O)NC3CCCNC3=O)nc3ccsc23)cn1` (stereo not shown) [Compound 66, 7-[(6-methyl-3-pyridyl)methyl]-N-(2-oxo-3-piperidyl)thieno[3,2-b]pyridine-5-carboxamide], the EC50 under setting [1] is 7410 nM. Also, under “Table 2, human M1”, the Emax stood at 93%.
For the molecule `C[C@@H]1CC(NC(=O)c2cc(Cc3ccc(-c4cscn4)cc3)c3c(ccn3C)n2)C[C@H](C)O1` (stereo partly drawn) [Compound 460, N-[(2S,6R)-2,6-dimethyltetrahydropyran-4-yl]-1-methyl-7-[(4-thiazol-4-ylphenyl)methyl]pyrrolo[3,2-b]pyridine-5-carboxamide], the EC50 under setting [1] was found to be 379 nM. In addition, the Emax (Table 2, human M1) came to 70.3%.
Take `Cc1ccc(Cc2cc(C(=O)NC3COC3)nc3ccsc23)cn1` [Compound 258, 7-[(6-methyl-3-pyridyl)methyl]-N-(oxetan-3-yl)thieno[3,2-b]pyridine-5-carboxamide]: under setting [1], the EC50 was above 10000 nM. In addition, the Emax (Table 2, human M1) was 27.5%.
Regarding `Cc1ccc(Cc2cc(C(=O)N[C@@H]3CCOC[C@H]3O)nc3c(C)csc23)cn1` [Compound 104], the EC50 under setting [1] worked out at 164 nM. The Emax (Table 2, human M1) worked out at 86.8%.
On to `Cc1nc(-c2ccc(Cc3cc(C(=O)NC4CCN(C)CC4)nc4ccsc34)cc2)cs1` [Compound 187, N-(1-methyl-4-piperidyl)-7-[[4-(2-methylthiazol-4-yl)phenyl]methyl]thieno[3,2-b]pyridine-5-carboxamide], for which the EC50 under setting [1] came out at 3200 nM. Further, the Emax (Table 2, human M1) was 72.1%.
On the same counts, the results for `O=C(N[C@H]1CCCNC1)c1cc(Cc2ccc(-n3cccn3)cc2)c2sccc2n1` [Compound 290, N-[(3S)-3-piperidyl]-7-[(4-pyrazol-1-ylphenyl)methyl]thieno[3,2-b]pyridine-5-carboxamide] are 5340 nM and 65.3%.
On to `Cc1ccc(Oc2cc(C(=O)N[C@H]3CCC[C@@H]3O)nc3ccsc23)cn1` [Compound 18, N-[(1S,2S)-2-hydroxycyclopentyl]-7-[(6-methyl-3-pyridyl)oxy]thieno[3,2-b]pyridine-5-carboxamide], for which the EC50 under setting [2] is above 10000 nM.
Regarding `O=C(NC1C2CC3C[C@H]1CC(O)(C3)C2)c1cc(Cc2ccc(C(F)(F)F)nc2)c2sccc2n1` (stereo partly drawn) [Compound 96, N-[(1S)-5-hydroxy-2-adamantyl]-7-[[6-(trifluoromethyl)-3-pyridyl]methyl]thieno[3,2-b]pyridine-5-carboxamide], the EC50 under setting [1] is above 10000 nM. In addition, the Emax (Table 2, human M1) turned out to be 43.6%.
On to `Cc1ccc([C@H](F)c2cc(C(=O)N[C@H]3CCCC[C@@H]3O)nc3ccsc23)cn1` [Compound 233], for which the EC50 under setting [1] came to 161 nM. Also, under “Table 2, human M1”, the Emax was 67.8%.
For the molecule `Cn1ccc(-c2ccc(Cc3cc(C(=O)NCC4CCO4)nc4ccsc34)cn2)n1` (stereo not shown) [Compound 355, 7-[[6-(1-methylpyrazol-3-yl)-3-pyridyl]methyl]-N-(oxetan-2-ylmethyl)thieno[3,2-b]pyridine-5-carboxamide], under setting [1], the EC50 is 355 nM. In addition, the Emax (Table 2, human M1) was determined as 86.6%.
On the same counts, the results for `Cn1ccc2nc(C(=O)NC3CCOCC3)cc(Cc3ccc(-c4nccs4)cc3)c21` [Compound 480, 1-methyl-N-tetrahydropyran-4-yl-7-[(4-thiazol-2-ylphenyl)methyl]pyrrolo[3,2-b]pyridine-5-carboxamide] are 360 nM and 57.2%.
Regarding `Cn1cc(-c2ccc(Cc3cc(C(=O)NC4CCCOC4)nc4ccsc34)cc2)nn1` (stereo not shown) [Compound 152, 7-[[4-(1-methyltriazol-4-yl)phenyl]methyl]-N-tetrahydropyran-3-yl-thieno[3,2-b]pyridine-5-carboxamide], the EC50 under setting [1] turned out to be 272 nM. Moreover, the Emax (Table 2, human M1) amounted to 92.3%.
In the case of `Cn1ccc2nc(C(=O)N[C@H]3CC[C@@H]3O)cc(Cc3ccc(-c4cscn4)cc3)c21` [Compound 459, N-[(1S,2S)-2-hydroxycyclobutyl]-1-methyl-7-[(4-thiazol-4-ylphenyl)methyl]pyrrolo[3,2-b]pyridine-5-carboxamide], the EC50 under setting [1] is 108 nM. Further, the maximum response (Emax) (Table 2, human M1) worked out at 73.5%.
The like results for `Cn1ncc2nc(C(=O)N[C@@H]3CC[C@H]3O)cc(Cc3ccc(-c4cscn4)cc3)c21` [Compound 490, N-[(1R,2R)-2-hydroxycyclobutyl]-1-methyl-7-[(4-thiazol-4-ylphenyl)methyl]pyrazolo-[4,3-b]pyridine-5-carboxamide] were, in that order, above 10000 nM and 61.9%.
The like results for `Cn1ccc(-c2ccc(Cc3cc(C(=O)NCC4CCOCC4)nc4ccn(C)c34)cc2)n1` [Compound 476, 1-methyl-7-[[4-(1-methylpyrazol-3-yl)phenyl]methyl]-N-(tetrahydropyran-4-ylmethyl)pyrrolo[3,2-b]pyridine-5-carboxamide] were, in that order, 280 nM and 83.5%.
On the same counts, the results for `O=C(NC1CCCCNC1=O)c1cc(Cc2ccc(-c3cscn3)cc2)c2sccc2n1` (stereo not shown) [Compound 222, N-(2-oxoazepan-3-yl)-7-[(4-thiazol-4-ylphenyl)methyl]thieno[3,2-b]pyridine-5-carboxamide] are 317 nM and 80.3%.
Regarding `Cc1ccc(Cc2cc(C(=O)N[C@@H]3CC[C@H]3O)nc3ccsc23)cn1` [Compound 44], the EC50 under setting [2] came to 3770 nM.
Take `O=C(N[C@@H]1CCOC[C@H]1O)c1cc(Cc2ccc(-n3cccn3)cc2)c2sccc2n1` [Compound 74, N-[(3S,4R)-3-hydroxytetrahydropyran-4-yl]-7-[(4-pyrazol-1-ylphenyl)methyl]thieno[3,2-b]pyridine-5-carboxamide]: the EC50 under setting [1] turned out to be 12.2 nM. Moreover, the Emax (Table 2, human M1) turned out to be 84.9%.
As for `O=C(N[C@@H]1CC[C@H]1O)c1cc(Cc2ccc(-c3cscn3)cc2)c2sccc2n1` [Compound 200, N-[(1R,2R)-2-hydroxycyclobutyl]-7-[(4-thiazol-4-ylphenyl)methyl]thieno[3,2-b]pyridine-5-carboxamide], the EC50 under setting [1] worked out at 116 nM. Also, the Emax (Table 2, human M1) came to 89.4%.
For the molecule `Cc1nc(-c2ccc(Cc3cc(C(=O)NC4CCOCC4)nc4ccsc34)cc2)cs1` [Compound 191, 7-[[4-(2-methylthiazol-4-yl)phenyl]methyl]-N-tetrahydropyran-4-yl-thieno[3,2-b]pyridine-5-carboxamide], under setting [1], the EC50 is 247 nM. For the same molecule, the maximum response (Emax) (Table 2, human M1) worked out at 86.9%.
